Source: ChEMBL document CHEMBL1201862, “PubChem BioAssay data set” (2004)
The source made the active and inactive calls.

Key:
[1] = target: T1, Sentrin-specific protease 1 (Homo sapiens, UniProt Q9P0U3); assay: SENP1 catalytic domain blockers, concentration series – biochemical, kinetic FRET, dose response (AID 651697); type: functional; settings: read-out: IC50_Mean
[2] = target: T1, Sentrin-specific protease 1; assay: Dose response confirmation of small molecule inhibitors of the catalytic domain of the SUMO protease, SENP1 in a FRET assay.; type: functional; settings: read-out: IC50_Mean
[3] = viability of uninfected HEp-2 cells – cell-based, HTS, cytotoxicity control for RSV inhibitor project, dose response (AID 2410); type: functional; settings: human respiratory syncytial virus
[4] = Counterscreen for inhibitors of Trypanosoma brucei methionyl tRNA synthetase (MetRS): Luminescence-based cell-based high throughput dose response assay to identify compounds that are cytotoxic to Jurkat human T lymphocyte cells.; type: functional
[5] = target: T2, Methionyl-tRNA synthetase, putative (Trypanosoma brucei brucei, UniProt Q38C91); type: functional, Trypanosoma brucei brucei strain 927/4 GUTat10.1
[6] = target: T2, Methionyl-tRNA synthetase, putative; type: functional, Trypanosoma brucei brucei strain 927/4 GUTat10.1; remark: listed apart in the source
Caspase-6 = target: T3, Caspase-6 (Homo sapiens, UniProt P55212); assay: inhibition of CASP6 peptide cleavage – biochemical, VEID-R110 fluorescence, cherry-pick, dose response (AID 720632)
T3 sequence (P55212 whole entry): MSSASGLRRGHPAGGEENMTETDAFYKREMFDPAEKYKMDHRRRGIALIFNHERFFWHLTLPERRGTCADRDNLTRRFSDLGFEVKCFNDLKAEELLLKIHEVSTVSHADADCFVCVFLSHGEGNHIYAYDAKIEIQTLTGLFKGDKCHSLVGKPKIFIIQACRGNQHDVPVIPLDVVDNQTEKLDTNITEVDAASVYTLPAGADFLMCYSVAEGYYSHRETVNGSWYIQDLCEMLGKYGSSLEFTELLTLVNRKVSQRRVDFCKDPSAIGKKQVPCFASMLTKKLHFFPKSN

[7] = target: T4, Sentrin-specific protease 8 (Homo sapiens, UniProt Q96LD8); type: functional
T4 sequence (Q96LD8 whole entry): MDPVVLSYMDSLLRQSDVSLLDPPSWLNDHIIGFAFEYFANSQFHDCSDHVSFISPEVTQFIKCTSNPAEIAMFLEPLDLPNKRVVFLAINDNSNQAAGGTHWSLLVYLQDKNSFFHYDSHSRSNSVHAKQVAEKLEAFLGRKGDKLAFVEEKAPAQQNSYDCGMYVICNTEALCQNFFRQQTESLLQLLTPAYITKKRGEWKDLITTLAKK

[8] = target: T4, Sentrin-specific protease 8; type: functional; remark: listed apart in the source
Caspase-3 = target: T5, Caspase-3 (Homo sapiens, UniProt P42574); assay: Dose-response confirmation of uHTS inhibitor hits of Sentrin-Specific Protease 8 in a Caspase-3 Fluorescence assay.; type: functional
T5 sequence (P42574 whole entry): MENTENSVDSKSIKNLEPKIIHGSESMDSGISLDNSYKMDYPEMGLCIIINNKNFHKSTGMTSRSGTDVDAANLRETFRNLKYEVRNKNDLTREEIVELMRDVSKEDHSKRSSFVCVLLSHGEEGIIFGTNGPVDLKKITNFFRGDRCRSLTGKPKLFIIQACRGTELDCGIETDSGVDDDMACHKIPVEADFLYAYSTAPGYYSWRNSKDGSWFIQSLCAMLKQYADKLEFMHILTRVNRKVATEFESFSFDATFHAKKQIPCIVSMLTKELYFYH

[9] = cytotoxicity in HEK293 background cells – cell-based, dry powder, set 2, counter-screen for EBV LMP1 inhibitor project, dose response (AID 624374); type: functional
[10] = viability loss in LCL cells – cell-based, plate reader, dry powder, set 2, cytotoxicity control, dose response (AID 624367); type: functional
[11] = target: T6, Rac GTPase-activating protein 1 (Homo sapiens, UniProt Q9H0H5); assay: blockers of MgcRacGAP-driven Rac1 GTP hydrolysis – biochemical, ADP Hunter fluorescence, primary and confirmatory, confirmation (AID 624330); type: functional
T6 sequence (Q9H0H5 whole entry): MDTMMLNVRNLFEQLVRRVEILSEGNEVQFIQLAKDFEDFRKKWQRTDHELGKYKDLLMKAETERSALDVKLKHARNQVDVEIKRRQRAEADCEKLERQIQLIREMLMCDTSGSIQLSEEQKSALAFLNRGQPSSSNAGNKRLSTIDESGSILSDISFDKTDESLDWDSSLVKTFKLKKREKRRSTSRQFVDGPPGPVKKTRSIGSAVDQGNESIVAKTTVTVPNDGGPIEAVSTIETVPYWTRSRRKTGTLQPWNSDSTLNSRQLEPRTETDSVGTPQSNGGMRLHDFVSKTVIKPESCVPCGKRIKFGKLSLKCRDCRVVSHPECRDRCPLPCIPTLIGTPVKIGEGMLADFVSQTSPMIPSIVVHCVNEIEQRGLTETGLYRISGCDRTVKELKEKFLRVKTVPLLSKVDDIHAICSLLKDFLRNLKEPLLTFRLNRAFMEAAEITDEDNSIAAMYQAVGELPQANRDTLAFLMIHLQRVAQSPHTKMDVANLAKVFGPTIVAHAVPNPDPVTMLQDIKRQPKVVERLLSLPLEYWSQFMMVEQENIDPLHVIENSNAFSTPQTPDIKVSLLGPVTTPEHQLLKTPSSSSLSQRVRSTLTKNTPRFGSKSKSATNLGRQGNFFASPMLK

[12] = viability loss in HeLa cells – cytotoxicity control for MgcRacGAP inhibitor project, dose response (AID 624300); type: functional

T2 sequence (Q38C91 whole entry): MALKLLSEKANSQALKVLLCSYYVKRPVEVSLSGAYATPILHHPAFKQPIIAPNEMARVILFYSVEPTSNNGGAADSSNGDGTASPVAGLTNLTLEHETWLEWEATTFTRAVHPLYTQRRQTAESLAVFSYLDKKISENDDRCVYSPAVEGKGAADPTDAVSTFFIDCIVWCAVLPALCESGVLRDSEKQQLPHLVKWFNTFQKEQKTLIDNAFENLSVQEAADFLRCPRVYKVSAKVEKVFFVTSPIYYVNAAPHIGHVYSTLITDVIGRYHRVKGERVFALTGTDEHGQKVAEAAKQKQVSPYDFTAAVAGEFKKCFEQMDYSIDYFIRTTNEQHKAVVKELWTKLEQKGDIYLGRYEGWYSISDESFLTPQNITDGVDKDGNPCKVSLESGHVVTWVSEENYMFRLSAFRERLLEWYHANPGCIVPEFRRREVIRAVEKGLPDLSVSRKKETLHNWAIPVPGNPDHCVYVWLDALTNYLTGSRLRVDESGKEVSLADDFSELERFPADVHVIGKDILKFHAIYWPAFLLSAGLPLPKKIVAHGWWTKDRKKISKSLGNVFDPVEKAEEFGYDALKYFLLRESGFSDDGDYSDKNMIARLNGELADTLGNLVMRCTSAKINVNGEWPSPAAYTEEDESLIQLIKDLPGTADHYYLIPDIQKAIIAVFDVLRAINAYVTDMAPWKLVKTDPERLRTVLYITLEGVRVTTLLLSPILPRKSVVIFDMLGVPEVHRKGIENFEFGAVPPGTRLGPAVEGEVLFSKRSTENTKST
T1 sequence (Q9P0U3 whole entry, the tested form may be a part): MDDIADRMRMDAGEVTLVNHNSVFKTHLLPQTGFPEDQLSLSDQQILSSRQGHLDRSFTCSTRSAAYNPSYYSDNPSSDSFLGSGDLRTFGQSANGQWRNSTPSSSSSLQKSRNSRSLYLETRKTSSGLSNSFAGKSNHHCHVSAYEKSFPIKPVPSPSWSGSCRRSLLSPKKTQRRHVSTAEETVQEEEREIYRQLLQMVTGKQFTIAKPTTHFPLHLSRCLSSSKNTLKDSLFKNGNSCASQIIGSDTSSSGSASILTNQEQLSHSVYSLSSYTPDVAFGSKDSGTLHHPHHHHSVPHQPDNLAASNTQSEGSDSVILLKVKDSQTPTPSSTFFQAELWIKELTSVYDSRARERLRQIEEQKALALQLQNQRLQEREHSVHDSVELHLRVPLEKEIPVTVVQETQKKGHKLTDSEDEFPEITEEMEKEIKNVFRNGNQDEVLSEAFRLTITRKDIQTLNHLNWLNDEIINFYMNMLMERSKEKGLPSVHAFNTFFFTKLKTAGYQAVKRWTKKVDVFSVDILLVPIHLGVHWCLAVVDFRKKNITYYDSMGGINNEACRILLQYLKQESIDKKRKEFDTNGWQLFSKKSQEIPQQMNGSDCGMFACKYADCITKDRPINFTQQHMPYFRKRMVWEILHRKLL

## COc1ccc(-c2ccc3c(c2)S(=O)(=O)c2cccc(C(=O)NCCOc4ccccc4)c2C3=O)cc1OC
[1]
  IC50: 10.5 µM (active)
[2]
  IC50: 8.3 µM (active)
[3]
  CC50: 46.1 µM (active)

## O=C(NCCCCc1ccccc1)Nc1cccc(F)c1
[4]
  IC50: 83.3 µM (inactive)
[5]
  IC50: 11.9 µM (inactive)
[6]
  IC50: 15.5 µM (inactive)

## O=C(COC(=O)c1ccc([N+](=O)[O-])o1)NCc1ccc(F)cc1
Caspase-6
  AC50: 40.7 µM (active)
[7]
  IC50: 6.4 µM (active)
[8]
  IC50: 11.7 µM (active)
Caspase-3
  IC50: 99.7 µM (inactive)

## Cc1noc(C)c1S(=O)(=O)Nc1ccc2c(c1)C(=O)N([C@@H](C)CO)C[C@@H](C)[C@@H](CN(C)Cc1ccc(C(F)(F)F)cc1)OCCCC[C@H](C)O2
[9]
  AbsAC35: 54.05 µM
[10]
  AbsAC35: 52.95 µM

## COc1cc(/C=N/NC(=O)NC23CC4CC(CC(C4)C2)C3)ccc1O
[11]
  IC50: 54.5 µM (active)
[12]
  CC50: 100 µM (active)
